The values below come from patent US20050191315A1 (priority 2002, published 2005).

What all share (format): cell-based, human
Test [1] relates to TSST-1 transcytosis across T-84 cell monolayers.
In test [2] the test system is SEE transcytosis across T-84 cell monolayers.
The subject of test [3] is SEB transcytosis across T-84 cell monolayers.
Test [4] has as its system SEA transcytosis across T-84 cell monolayers.

Turning to KKKVTAQELD [SEB 152-161], in test [1], the “transcytosis of TSST-1 reduced” value came out at 59%. In test [2], the “transcytosis of SEE reduced” value is listed as 68%. Also, in test [3], the “movement of SEB across the monolayers reduced by” value amounted to 85%. Also, the “transcytosis of SEA reduced” value in test [4] is recorded as 73%.
